Usually IC50 stands for the concentration at which inhibition is half-maximal.

SMILES strings stand for the structures.

Data set [1] in a line: Cytotoxicity against mouse RAW264.7 cells assessed as cell viability at 100 uM after 24 hrs by MTT assay relative to control. In kind it is cell-based. The following applies: read-out: Activity. In general terms: Tetrazolium dyes change colour on reduction, which living cells bring about.
The test system of a further data set is RAW264.7. The data set can be described thus: Antiinflammatory activity in mouse RAW264.7 cells assessed as inhibition of LPS-induced NO production after 24 hrs. The class given is functional, cell-based. The following applies: RAW264.7, 24 h.

Consider `CC(=O)O[C@@H]1CC[C@@]2(C)[C@@H](C[C@H](O)[C@]3(C)[C@@H]2C(=O)C=C2[C@@H]4[C@@H](C)[C@H](C)CC[C@]4(C)CC[C@]23C)[C@@]1(C)C(=O)O`, for which the viability at 24 h, 100 µM in data set [1] came to 84.2%. Moreover, the IC50 with RAW264.7 worked out at 1.5 µM. On the same counts, the results for `CC(=O)O[C@@H]1CC[C@@]2(C)[C@@H](C[C@H](O)[C@]3(C)[C@@H]2C(=O)C=C2[C@@H]4[C@@H](C)[C@H](C)[C@@H](O)C[C@]4(C)CC[C@]23C)[C@@]1(C)C(=O)O` are 104% and 87.7 µM. In the case of `CC(=O)O[C@@H]1CC[C@@]2(C)[C@@H](C[C@H](O)[C@]3(C)[C@@H]2C(=O)C=C2[C@@H]4[C@@H](C)[C@H](C)C[C@H](O)[C@]4(C)CC[C@]23C)[C@@]1(C)C(=O)O`, in data set [1], the viability at 24 h, 100 µM was 89.8%. Also, the IC50 with RAW264.7 was 76.8 µM. Turning to `CC(=O)O[C@@H]1CC[C@@]2(C)[C@@H](C[C@H](O)[C@]3(C)[C@@H]2C(=O)C=C2[C@@H]4[C@@H](C)[C@H](C)CC[C@]4(C)[C@H](O)C[C@]23C)[C@@]1(C)C(=O)O`, in data set [1], the viability at 24 h, 100 µM is 98.1%. The IC50 with RAW264.7 amounted to 10.6 µM. As for `CC(=O)O[C@@H]1CC[C@@]2(C)[C@@H](C[C@H](O)[C@]3(C)[C@@H]2C(=O)C=C2[C@@H]4[C@@H](C)[C@H](C)CC[C@]4(C)C[C@H](O)[C@]23C)[C@@]1(C)C(=O)O`, the viability at 24 h, 100 µM in data set [1] turned out to be 108%. Besides, the IC50 with RAW264.7 was more than 100 µM. The corresponding values for `CC(=O)O[C@@H]1CC[C@@]2(C)[C@@H](CC[C@]3(C)[C@@H]2C(=O)C=C2[C@@H]4[C@@H](C)[C@H](C)[C@@H](O)C[C@]4(C)C[C@H](O)[C@]23C)[C@@]1(C)C(=O)O` are 134% and more than 100 µM. With `CC(=O)O[C@@H]1CC[C@@]2(C)[C@@H](C[C@H](O)[C@]3(C)[C@@H]2C(=O)C=C2[C@@H]4[C@@H](C)[C@H](C)[C@@H](O)C[C@]4(C)C[C@H](O)[C@]23C)[C@@]1(C)C(=O)O`, the viability at 24 h, 100 µM in data set [1] was determined as 103%. In addition, the IC50 in the data set on RAW264.7 is more than 100 µM.

Consider `CC(=O)O[C@@H]1CC[C@@]2(C)[C@@H](CC[C@]3(C)[C@@H]2C(=O)C=C2[C@@H]4[C@@H](C)[C@H](C)CC[C@]4(C)CC[C@]23C)[C@@]1(C)C(=O)O` [AKBA], for which, in data set [1], the viability at 24 h, 100 µM was 81.2%. The IC50 in the data set on RAW264.7 was found to be 15.6 µM. Take `CN(C)c1ccc(O)c2c1C[C@H]1C[C@H]3[C@H](N(C)C)C(O)=C(C(N)=O)C(=O)[C@@]3(O)C(O)=C1C2=O` [MINOCYCLINE]: in data set [1], the viability at 24 h, 100 µM was determined as 100%.

The record behind these values is ChEMBL document CHEMBL2331116, “Microbial transformation of acetyl-11-keto-β-boswellic acid and their inhibitory activity on LPS-induced NO production” (Bioorg Med Chem Lett, 2013).
